In patent publication US20220372014A1, “NEUROPROTECTIVE COMPOUNDS AND METHODS OF USE THEREOF” (The Johns Hopkins University, priority 2019, published 2022):

Key:
[1] = test system: HeLa cells or neuronal cells; test: Cell death assay of Example 3 (MNNG, alamarBlue; protection against parthanatos, Table 4); format: cell-based; settings: 1 μM test compound, MNNG-induced cell death, alamarBlue
Procedure, shortened: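 HeLa or neuronal cells (1×10^4/well) were pretreated 1 h at 37° C with 1 μM compound, exposed to MNNG for 15 min, washed, then re-incubated 18 h with 1 μM compound. Viability was read by alamarBlue fluorescence (ex 560/em 590 nm). Cell death was expressed relative to control wells.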

MIF = target: T1, MIF (Homo sapiens, UniProt P14174); test: Nuclease assay of Example 3 (MIF inhibitory activity, Table 4); format: biochemical; parameters: (%) inhibition of MIF nuclease activity: concentration or dose not given beside the values; settings: nuclease assay of Example 3
T1 sequence (P14174 1-115): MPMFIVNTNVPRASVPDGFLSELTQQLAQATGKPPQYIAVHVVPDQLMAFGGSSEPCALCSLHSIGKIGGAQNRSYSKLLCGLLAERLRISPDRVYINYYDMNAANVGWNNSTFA
Procedure, shortened: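 Human genomic DNA (200 ng), pcDNA (200 ng) or PS^30-type substrates (1 μM) were incubated with MIF (0.25-8 μM final) in 10 mM Tris-HCl pH 7.0, 10 mM MgCl2, 1 mM DTT at 37 °C for 1 h (pcDNA, small substrates) or 4 h (genomic DNA). Cleavage was assessed by agarose or PAGE electrophoresis with EtBr staining and chemiluminescent detection of biotin-labelled DNA.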

| SMILES | (%) inhibition of cell death [1] [%] | (%) inhibition of MIF nuclease activity (MIF) [%] |
| --- | --- | --- |
| COCC[C@@H]1NC(=O)[C@H](COC(C)(C)C)N(C)C(=O)C(c2ccccc2)NC(=O)[C@H](C)N(C)C(=O)COc2cccc(c2)[C@@H](CCc2ccc(OC)c(OC)c2)OC(=O)[C@@H]2CCCCN2C(=O)C(=O)C(C)(C)COC(=O)C=CCCN(C)C1=O (some centres unmarked) [compound 50] | 56.4 | 18.0 |
| COc1ccc(CC[C@H]2OC(=O)[C@@H]3CCCCN3C(=O)C(=O)C(C)(C)COC(=O)C=CCCN(C)C(=O)[C@@H](CC(C)C)NC(=O)[C@H](COC(C)(C)C)N(C)C(=O)C(c3ccccc3)NC(=O)[C@H](C)N(C)C(=O)COc3cccc2c3)cc1OC (some centres unmarked) [compound 52] | 61.0 | 9.9 |
| COc1ccc(CC[C@H]2OC(=O)[C@@H]3CCCCN3C(=O)C(=O)C(C)(C)COC(=O)C=CCCN(C)C(=O)[C@H](Cc3ccccc3)NC(=O)[C@H](COC(C)(C)C)N(C)C(=O)C(c3ccccc3)NC(=O)[C@H](C)N(C)C(=O)COc3cccc2c3)cc1OC (some centres unmarked) [compound 53] | 58.3 | 14.1 |
| COc1ccc(CC[C@H]2OC(=O)[C@@H]3CCCCN3C(=O)C(=O)C(C)(C)COC(=O)C=CCCN(C)C(=O)[C@@H](Cc3ccccc3)NC(=O)[C@H](COC(C)(C)C)N(C)C(=O)C(c3ccccc3)NC(=O)[C@H](C)N(C)C(=O)COc3cccc2c3)cc1OC (some centres unmarked) [compound 54] | 56.0 | 15.9 |
| COc1ccc(CC[C@H]2OC(=O)[C@@H]3CCCCN3C(=O)C(=O)C(C)(C)COC(=O)C=CCCN(C)C(=O)[C@H](Cc3ccc(F)cc3)NC(=O)[C@H](COC(C)(C)C)N(C)C(=O)C(c3ccccc3)NC(=O)[C@H](C)N(C)C(=O)COc3cccc2c3)cc1OC (some centres unmarked) [compound 55] | 59.9 | 13.6 |
| COc1ccc(CC[C@H]2OC(=O)[C@@H]3CCCCN3C(=O)C(=O)C(C)(C)COC(=O)C=CCCN(C)C(=O)[C@H](CC3CCCCC3)NC(=O)[C@H](COC(C)(C)C)N(C)C(=O)C(c3ccccc3)NC(=O)[C@H](C)N(C)C(=O)COc3cccc2c3)cc1OC (some centres unmarked) [compound 57] | 59.3 | 18.4 |
| COc1ccc(CC[C@H]2OC(=O)[C@@H]3CCCCN3C(=O)C(=O)C(C)(C)COC(=O)C=CCCN(C)C(=O)[C@H](Cc3ccc4ccccc4c3)NC(=O)[C@H](COC(C)(C)C)N(C)C(=O)C(c3ccccc3)NC(=O)[C@H](C)N(C)C(=O)COc3cccc2c3)cc1OC (some centres unmarked) [compound 58] | 56.1 | 16.5 |
| COc1ccc(CC[C@H]2OC(=O)[C@@H]3CCCCN3C(=O)C(=O)C(C)(C)COC(=O)C=CCCN(C)C(=O)[C@H](C(C)C)NC(=O)[C@H](COC(C)(C)C)N(C)C(=O)C(c3ccccc3)NC(=O)[C@H](C)N(C)C(=O)COc3cccc2c3)cc1OC (some centres unmarked) [compound 59] | 58.9 | 13.3 |
| COc1ccc(CC[C@H]2OC(=O)[C@@H]3CCCCN3C(=O)C(=O)C(C)(C)COC(=O)C=CCCN(C)C(=O)[C@H](c3ccccc3)NC(=O)[C@H](COC(C)(C)C)N(C)C(=O)C(c3ccccc3)NC(=O)[C@H](C)N(C)C(=O)COc3cccc2c3)cc1OC (some centres unmarked) [compound 60] | 55.4 | 59.4 |
| COc1ccc(CC[C@H]2OC(=O)[C@@H]3CCCCN3C(=O)C(=O)C(C)(C)COC(=O)C=CCCN(C)C(=O)CNC(=O)[C@H](Cc3ccccc3)N(C)C(=O)[C@@H](C)NC(=O)CN(C)C(=O)COc3cccc2c3)cc1OC [compound 61] | 53.8 | 19.2 |
